Common to all, as to assay type: in vivo
One experiment relates to corn (Zea mays). Put plainly: Test C preemergence, corn. The note with it: 0 is no effect, 100 is complete control. Put shortly:
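Injury is given as a visual 0–100 rating, where 100 is complete control, made against untreated plants after 10 or 12 greenhouse days. Galium received a postemergence spray at the one- to two-leaf stage (2–10 cm tall). Corn, ragweed and goosegrass seeds in loam-sand blend received a directed preemergence soil spray; test chemicals were formulated in a surfactant-containing non-phytotoxic solvent.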

Experiment [1] deals with foxtail, giant (giant foxtail, Setaria faberi). Briefly: Test C preemergence, giant foxtail. The note with it: 0 is no effect, 100 is complete control. Put shortly: (§1)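 Pre: soil sprayed at seeding. Post: seedlings treated at 1–2 leaves (2–10 cm). Vehicle non-phytotoxic solvent mix with surfactant; loam–sand medium; greenhouse; visual injury read at 10 or 12 days, scale 0–100.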

Experiment [2] deals with goosegrass (Eleusine indica). Put plainly: Test C postemergence, goosegrass. The note with it: visual injury, 0 to 100 scale (0 no effect, 100 complete control). Put shortly: as §1
Another experiment deals with kochia (Bassia scoparia). Briefly: Test C postemergence, kochia. The note with it: visual injury, 0 to 100 scale (0 no effect, 100 complete control). Put shortly:
as §1

Experiment [3] relates to pigweed, palmer (palmer amaranth, Amaranthus palmeri). Put plainly: Test C postemergence, palmer amaranth. The following applies: visual injury, 0 to 100 scale (0 no effect, 100 complete control). The procedure, abridged: as §1
Experiment [4] has as its system ryegrass, Italian (Italian ryegrass, Lolium multiflorum). Briefly: Test C postemergence, Italian ryegrass. The note with it: visual injury, 0 to 100 scale (0 no effect, 100 complete control). Put shortly:
as §1

The subject of another experiment is soybean (Glycine max). Put plainly: Test C postemergence, soybean. The following applies: visual injury, 0 to 100 scale (0 no effect, 100 complete control).

Turning to `C#CC(C)OC1CCN(c2cc(NS(=O)(=O)C(F)(F)F)c(C)cc2C)C1=O` (stereo not shown) [Compound 58], the “Plant response rating (0 to 100 scale), Corn” value (from here on “Plant response rating … Corn”) is listed as 20 in the experiment on corn (Zea mays) (31 g ai/ha Preemergence) and 100 in the experiment on corn (Zea mays) (125 g ai/ha Preemergence). Besides, the “Plant response rating (0 to 100 scale), Foxtail, Giant” value (shortened to “Plant response rating … Giant”) in experiment [1] (31 g ai/ha Preemergence) and in experiment [1] (125 g ai/ha Preemergence) was 100 throughout. The “Goosegrass plant response rating” value in experiment [2] (31 g ai/ha Postemergence) and in experiment [2] (125 g ai/ha Postemergence) was 100 in each case. The “Kochia plant response rating” value in the experiment on kochia (Bassia scoparia) (31 g ai/ha Postemergence) worked out at 70; in the experiment with kochia (Bassia scoparia) (125 g ai/ha Postemergence) it was 90. The “Pigweed, Palmer plant response rating” value in experiment [3] (31 g ai/ha Postemergence) was 50; in experiment [3] (125 g ai/ha Postemergence), 80. Moreover, the “Ryegrass, Italian plant response rating” value in experiment [4] (31 g ai/ha Postemergence) is on record as 60; in experiment [4] (125 g ai/ha Postemergence) it was 70. Further, the “Soybean plant response rating” value was determined as 60 in the experiment with soybean (Glycine max) (31 g ai/ha Postemergence) and 90 in the experiment with soybean (Glycine max) (125 g ai/ha Postemergence).
On to `C=C(C)COC1CCN(c2cc(NS(=O)(=O)C(F)(F)F)c(C)cc2C)C1=O` (stereo not shown) [Compound 59], for which the entries for the “Plant response rating … Corn” value in the experiment on corn (Zea mays) (31 g ai/ha Preemergence) and with corn (Zea mays) (125 g ai/ha Preemergence) were 40 and 100, respectively. In addition, the “Plant response rating … Giant” value in experiment [1] (31 g ai/ha Preemergence) and in experiment [1] (125 g ai/ha Preemergence) was 100 in each case. Also, the “Goosegrass plant response rating” value stood at 70 in experiment [2] (31 g ai/ha Postemergence) and 90 in experiment [2] (125 g ai/ha Postemergence). Further, the figures for the “Kochia plant response rating” value in the experiment on kochia (Bassia scoparia) (31 g ai/ha Postemergence) and in the experiment on kochia (Bassia scoparia) (125 g ai/ha Postemergence) were 70 and 80, respectively. Moreover, the entries for the “Pigweed, Palmer plant response rating” value in experiment [3] (31 g ai/ha Postemergence) and in experiment [3] (125 g ai/ha Postemergence) were 40 and 80, respectively. The “Ryegrass, Italian plant response rating” value in experiment [4] (31 g ai/ha Postemergence) amounted to 10; in experiment [4] (125 g ai/ha Postemergence) it was 70. Besides, the “Soybean plant response rating” value in the experiment on soybean (Glycine max) (31 g ai/ha Postemergence) stood at 60; in the experiment on soybean (Glycine max) (125 g ai/ha Postemergence) it was 80.
On to `Cc1cc(C)c(N2CCC(OCc3ccccc3)C2=O)cc1NS(=O)(=O)C(F)(F)F` (stereo not shown) [Compound 61], for which the figures for the “Plant response rating … Corn” value with corn (Zea mays) (31 g ai/ha Preemergence) and in the experiment with corn (Zea mays) (125 g ai/ha Preemergence) were 20 and 100, respectively. In addition, the “Plant response rating … Giant” value in experiment [1] (31 g ai/ha Preemergence) and in experiment [1] (125 g ai/ha Preemergence) was 100 each time. The “Goosegrass plant response rating” value is 40 in experiment [2] (31 g ai/ha Postemergence) and 90 in experiment [2] (125 g ai/ha Postemergence). Moreover, the “Kochia plant response rating” value worked out at 60 with kochia (Bassia scoparia) (31 g ai/ha Postemergence) and 90 in the experiment with kochia (Bassia scoparia) (125 g ai/ha Postemergence). For the same compound, the “Pigweed, Palmer plant response rating” value in experiment [3] (31 g ai/ha Postemergence) is given as 50; in experiment [3] (125 g ai/ha Postemergence), 80. In addition, the “Ryegrass, Italian plant response rating” value in experiment [4] (31 g ai/ha Postemergence) is reported as 0; in experiment [4] (125 g ai/ha Postemergence), 60. For the same compound, the “Soybean plant response rating” value in the experiment on soybean (Glycine max) (31 g ai/ha Postemergence) amounted to 60; with soybean (Glycine max) (125 g ai/ha Postemergence), 90.
With `Cc1c(NS(=O)(=O)C(F)(F)F)cc(N2CCC(OCC3CC3)C2=O)c(C)c1F` (stereo not shown) [Compound 63], the results for the “Plant response rating … Corn” value with corn (Zea mays) (31 g ai/ha Preemergence) and in the experiment on corn (Zea mays) (125 g ai/ha Preemergence) were 30 and 100, respectively. Also, the “Plant response rating … Giant” value in experiment [1] (31 g ai/ha Preemergence) and in experiment [1] (125 g ai/ha Preemergence) was 100 each time. The entries for the “Goosegrass plant response rating” value in experiment [2] (31 g ai/ha Postemergence) and in experiment [2] (125 g ai/ha Postemergence) were 0 and 90, respectively. The “Kochia plant response rating” value is reported as 80 in the experiment with kochia (Bassia scoparia) (31 g ai/ha Postemergence) and 90 with kochia (Bassia scoparia) (125 g ai/ha Postemergence). Further, the “Pigweed, Palmer plant response rating” value in experiment [3] (31 g ai/ha Postemergence) is listed as 70; in experiment [3] (125 g ai/ha Postemergence), 90. Besides, the entries for the “Ryegrass, Italian plant response rating” value in experiment [4] (31 g ai/ha Postemergence) and in experiment [4] (125 g ai/ha Postemergence) were 0 and 10, respectively. The “Soybean plant response rating” value is 50 in the experiment on soybean (Glycine max) (31 g ai/ha Postemergence) and 100 in the experiment with soybean (Glycine max) (125 g ai/ha Postemergence).
In the case of `Cc1c(NS(=O)(=O)C(F)(F)F)cc(N2CCC(OCC3CCC3)C2=O)c(C)c1F` (stereo not shown) [Compound 64], the “Plant response rating … Corn” value in the experiment with corn (Zea mays) (31 g ai/ha Preemergence) was 10; with corn (Zea mays) (125 g ai/ha Preemergence), 60. The “Plant response rating … Giant” value in experiment [1] (31 g ai/ha Preemergence) and in experiment [1] (125 g ai/ha Preemergence) was 100 each time. Moreover, the “Goosegrass plant response rating” value in experiment [2] (31 g ai/ha Postemergence) came to 30; in experiment [2] (125 g ai/ha Postemergence), 70. Further, the results for the “Kochia plant response rating” value in the experiment with kochia (Bassia scoparia) (31 g ai/ha Postemergence) and with kochia (Bassia scoparia) (125 g ai/ha Postemergence) were 50 and 100, respectively. For the same compound, the “Pigweed, Palmer plant response rating” value in experiment [3] (31 g ai/ha Postemergence) was determined as 60; in experiment [3] (125 g ai/ha Postemergence), 70. The “Ryegrass, Italian plant response rating” value in experiment [4] (31 g ai/ha Postemergence) is recorded as 0; in experiment [4] (125 g ai/ha Postemergence), 20. Also, the “Soybean plant response rating” value with soybean (Glycine max) (31 g ai/ha Postemergence) was found to be 60; in the experiment with soybean (Glycine max) (125 g ai/ha Postemergence) it was 90.
